Consider 16 compounds from patent publication US20220009920A1 (GB005, Inc., priority 2020, published 2022).

Structures are written as SMILES. Where two headings read alike, the source gives them in different places.

Data set [1] can be described thus: Plasma and total brain concentrations at 1 h post single oral administration to female C57BL/6 mice. The format is in vivo. The note with it: mouse, 10 mg/kg oral gavage; for Kp at 1 h: brain/plasma, read-out: brain to plasma ratio. As for the experimental part: The appropriate amount of test article was dissolved 10% dimethylacetamide (DMA)/90% (20% hydroxypropyl-β-cyclodextrin (HP-B-CD) w/v in water to obtain a final concentration of 1 mg/mL for oral dosing. Sonication, vortex, and homogenization was used as needed. Three female C57BL/6 mice aged 7-9 weeks (20-30 grams) were dosed by oral gavage 10 mg/kg solution of the test article.
Concentrations of test compounds in the plasma and brain samples (use plasma and brain homogenate standard curve for all samples appropriately) were analyzed using LC-MS/MS. Compounds having a brain-to-plasma ratio of greater than 0.2 were considered brain penetrant.

The subject of the next data set is BTK in RAMOS B cells. The experiment in a line: Assay to determine BTK activity in RAMOS B cells (anti-IgM, FLIPR Calcium 6). The format is cell-based. The note with it: anti-IgM EC80, calcium readout.
For the next data set, the target named is T1, BTK (Homo sapiens, UniProt Q06187).
T1 construct: purchased Cama
Kind of data set: Assay to determine activity against BTK. The data set is classed as biochemical. Particulars: 1 mM ATP, 2 nM BTK, 90 minutes at room temperature. In outline:
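Recombinant BTK (2 nM) was assayed with 1.5 µM FL-peptide and 1 mM ATP in pH 7.5 HEPES buffer with MgCl2, DTT, BSA and EGTA, for 90 min at room temperature before an EDTA stop. Peptide conversion ratio was read by mobility-shift, and IC50 came from 11-point 3-fold dilution curves.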

[2] abbreviates: plasma, read-out: Mean [plasma].

T1 sequence (Q06187 whole entry): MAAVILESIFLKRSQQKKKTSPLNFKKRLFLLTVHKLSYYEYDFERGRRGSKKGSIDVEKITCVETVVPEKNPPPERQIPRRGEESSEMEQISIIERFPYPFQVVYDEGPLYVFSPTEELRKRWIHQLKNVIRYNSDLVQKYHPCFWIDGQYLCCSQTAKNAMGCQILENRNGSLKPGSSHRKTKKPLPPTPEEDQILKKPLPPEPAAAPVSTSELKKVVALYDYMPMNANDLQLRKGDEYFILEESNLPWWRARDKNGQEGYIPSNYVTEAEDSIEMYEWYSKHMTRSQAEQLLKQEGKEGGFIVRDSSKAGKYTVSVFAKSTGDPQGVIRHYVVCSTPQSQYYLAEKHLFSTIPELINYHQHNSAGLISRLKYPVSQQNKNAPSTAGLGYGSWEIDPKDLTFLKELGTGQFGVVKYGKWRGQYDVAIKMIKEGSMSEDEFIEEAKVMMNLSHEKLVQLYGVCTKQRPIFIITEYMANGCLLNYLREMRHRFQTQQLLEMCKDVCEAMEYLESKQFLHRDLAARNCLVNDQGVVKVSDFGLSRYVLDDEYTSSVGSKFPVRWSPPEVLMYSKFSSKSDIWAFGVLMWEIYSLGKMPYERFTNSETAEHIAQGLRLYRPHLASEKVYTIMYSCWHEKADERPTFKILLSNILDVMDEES

Regarding `CC#CC(=O)N[C@H]1CCCN(c2c(F)cc(C(N)=O)c3[nH]c(C)c(C)c23)C1` [Branebrutinib, reference compound], the concentration at 1 h in data set [1] (brain, read-out: Mean [brain]) amounted to 15 ng/g; in data set [1] (setting [2]) it was 6820 ng/mL. Also, the Kp at 1 h in data set [1] came out at 0.002.
Usually IC50 stands for the concentration that gives 50% inhibition. In the case of `C=CC(=O)N1CCC[C@@H](c2cnc(C(N)=O)c3[nH]c4c(c23)CCCC4)C1` [Compound 2-4, (S)-4-(1-acryloylpiperidin-3-yl)-6,7,8,9-tetrahydro-5H-pyrido[3,4-b]indole-1-carboxamide], the IC50 with BTK in RAMOS B cells (Homo sapiens, Ramos) is < 10 nM; against BTK it was < 10 nM. For the same compound, the concentration at 1 h turned out to be 39 ng/g in data set [1] (brain, read-out: Mean [brain]) and 163 ng/mL in data set [1] (setting [2]). Moreover, the Kp at 1 h in data set [1] worked out at 0.24.
Take `C=CC(=O)N1CCc2c(cccc2-c2ccc(C(N)=O)c3[nH]c4c(c23)CC2(CC4)CC2)C1` [Compound 7-2, 5-(2-acryloyl-1,2,3,4-tetrahydroisoquinolin-5-yl)-1,2,4,9-tetrahydrospiro[carbazole-3,1′-cyclopropane]-8-carboxamide]: the IC50 in the data set on BTK in RAMOS B cells (Homo sapiens, Ramos) is ≥ 100 nM; against BTK, 10 to 100 nM. The concentration at 1 h in data set [1] (brain, read-out: Mean [brain]) is 43 ng/g; in data set [1] (setting [2]), 109 ng/mL. Also, the Kp at 1 h in data set [1] came out at 0.39.
In the case of `C=CC(=O)N1CCC(CNc2ncnc(N)c2-c2ccc(Oc3ccccc3)cc2)CC1` [Evobrutinib, reference compound], the concentration at 1 h in data set [1] (brain, read-out: Mean [brain]) is 11 ng/g; in data set [1] (setting [2]), 177 ng/mL. The Kp at 1 h in data set [1] is 0.06.
For the compound `C=CC(=O)N1CCC=C(c2c(F)cc(C(N)=O)c3[nH]c4c(c23)CCCCC4)C1` [Compound 5-4, 1-(1-acryloyl-1,2,5,6-tetrahydropyridin-3-yl)-2-fluoro-5,6,7,8,9,10-hexahydrocyclohepta[b]indole-4-carboxamide], the IC50 is 10 to 100 nM in the data set with BTK in RAMOS B cells (Homo sapiens, Ramos) and < 10 nM on BTK. Moreover, the concentration at 1 h in data set [1] (brain, read-out: Mean [brain]) is 4 ng/g; in data set [1] (setting [2]) it was 18 ng/mL. Also, the Kp at 1 h in data set [1] was determined as 0.22.
Regarding `CC#CC(=O)N1CCC[C@H]1c1nc(-c2ccc(C(=O)Nc3ccccn3)cc2)c2c(N)nccn12` [Acalabrutinib, reference compound], the concentration at 1 h stood at 4 ng/g in data set [1] (brain, read-out: Mean [brain]) and 120 ng/mL in data set [1] (setting [2]). Moreover, the Kp at 1 h in data set [1] is 0.04.
In the case of `C=CC(=O)N1CCC=C(c2ccc(C(N)=O)c3[nH]c4c(c23)CC2(CCCC2)CC4)C1` [Compound 7-5, 5-(1-acryloyl-1,2,5,6-tetrahydropyridin-3-yl)-1,2,4,9-tetrahydrospiro[carbazole-3,1′-cyclopentane]-8-carboxamide], the IC50 in the data set with BTK in RAMOS B cells (Homo sapiens, Ramos) lay in the range of 10 to 100 nM; on BTK, 10 to 100 nM.
For `C=CC(=O)N1CCC=C(c2cnc(C(N)=O)c3[nH]c4c(c23)CC(F)(F)CC4)C1` [Compound 2-9, 4-(1-acryloyl-1,2,5,6-tetrahydropyridin-3-yl)-6,6-difluoro-6,7,8,9-tetrahydro-5H-pyrido[3,4-b]indole-1-carboxamide], the IC50 in the data set on BTK in RAMOS B cells (Homo sapiens, Ramos) lay in the range of 10 to 100 nM; at BTK it was 10 to 100 nM.
Turning to `C=CC(=O)N1CCc2c(cccc2-c2c(C)nc(C(N)=O)c3[nH]c4c(c23)CCCC4)C1` (single isomer, unassigned) [Compound 2-5, 4-(2-acryloyl-1,2,3,4-tetrahydroisoquinolin-5-yl)-3-methyl-6,7,8,9-tetrahydro-5H-pyrido[3,4-b]indole-1-carboxamide], the IC50 in the data set on BTK in RAMOS B cells is ≥ 100 nM; against BTK, 10 to 100 nM.
Take `C=CC(=O)N1CCc2c(cccc2-c2c(F)cc(C(N)=O)c3[nH]c4c(c23)CC2(CCOC2)CC4)C1` (stereo not drawn) [Compound 7-17, 5-(2-acryloyl-1,2,3,4-tetrahydroisoquinolin-5-yl)-6-fluoro-1,2,4,4′,5′,9-hexahydro-2′H-spiro[carbazole-3,3′-furan]-8-carboxamide]: the IC50 was ≥ 100 nM with BTK in RAMOS B cells (Homo sapiens, Ramos) and 10 to 100 nM on BTK.
As for `C=CC(=O)N1CCC[C@@H](n2nc(-c3ccc(Oc4ccccc4)cc3)c3c(N)ncnc32)C1` [Ibrutinib, reference compound], the concentration at 1 h in data set [1] (brain, read-out: Mean [brain]) turned out to be 15 ng/g; in data set [1] (setting [2]), 306 ng/mL. Besides, the Kp at 1 h in data set [1] was 0.001.
On to `C=CC(=O)N1CCC=C(c2ccc(C(N)=O)c3[nH]c4c(c23)C[Si](C)(C)CC4)C1` [Compound 9-7, 9-(1-acryloyl-1,2,5,6-tetrahydropyridin-3-yl)-2,2-dimethyl-2,3,4,5-tetrahydro-1H-silino[4,3-b]indole-6-carboxamide], for which the IC50 in the data set on BTK in RAMOS B cells (Homo sapiens, Ramos) was 10 to 100 nM; on BTK, < 10 nM.
Turning to `C=CC(=O)N1CCc2c(-c3c(F)cc(C(N)=O)c4[nH]c5c(c34)CC3(CC5)CC3)cccc2[C@@H]1C` (atropisomer, axis not shown) [Compound 7-21, (R)-5-((S)-2-acryloyl-1-methyl-1,2,3,4-tetrahydroisoquinolin-5-yl)-6-fluoro-1,2,4,9-tetrahydrospiro[carbazole-3,1′-cyclopropane]-8-carboxamide], the IC50 is 10 to 100 nM in the data set with BTK in RAMOS B cells (Homo sapiens, Ramos) and < 10 nM against BTK.
`C=CC(=O)N1CCc2c(cccc2-c2c(F)cc(C(N)=O)c3[nH]c4c(c23)CC2(CCOC2)CC4)C1` (stereo not drawn) [Compound 7-18, 5-(2-acryloyl-1,2,3,4-tetrahydroisoquinolin-5-yl)-6-fluoro-1,2,4,4′,5′,9-hexahydro-2′H-spiro[carbazole-3,3′-furan]-8-carboxamide]: the values for the IC50 in the data set with BTK in RAMOS B cells and at BTK were ≥ 100 nM and 10 to 100 nM, respectively.
Consider `C=CC(=O)N1CCC=C(c2ccc(C(N)=O)c3[nH]c4c(c23)CC2(CC4)OCCO2)C1` [Compound 6-1, 4′-(1-prop-2-enoyl-3,6-dihydro-2H-pyridin-5-yl)spiro[1,3-dioxolane-2,6′-5,7,8,9-tetrahydrocarbazole]-1′-carboxamide], for which the IC50 is 10 to 100 nM in the data set on BTK in RAMOS B cells (Homo sapiens, Ramos) and 10 to 100 nM on BTK.
As to `C=CC(=O)N1CCC=C(c2c(F)cc(C(N)=O)c3[nH]c4c(c23)CC2(CC4)CC2)C1` [Compound 7-11, 5-(1-acryloyl-1,2,5,6-tetrahydropyridin-3-yl)-6-fluoro-1,2,4,9-tetrahydrospiro[carbazole-3,1′-cyclopropane]-8-carboxamide], the IC50 in the data set on BTK in RAMOS B cells (Homo sapiens, Ramos) was < 10 nM; on BTK, < 10 nM.
